# Literature values in patent US7595169B2, “Method for determining percent platelet aggregation” (Accumetrics, Inc., priority 2005, dated 2009).
# System: platelet aggregation
# Conditions: patients with stable angina pectoris scheduled for elective coronary stent placement; literature study
compound,measurement,value
COC(=O)[C@H](c1ccccc1Cl)N1CCc2sccc2C1 [clopidogrel],patients receiving the drug who did not achieve the expected platelet aggregation inhibition,at least 10%
